Assay results reported in patent US20240300980A1, “HETEROCYCLIC COMPOUNDS AS KRAS INHIBITOR, AND PREPARATION THEREFOR AND USE THEREOF IN TREATMENT” (SHANGHAI KECHOW PHARMA, INC., priority 2021, published 2024).

These compounds were tested on AGS cells (KRAS^G12D) (assay: Detection of cell proliferation in vitro by MTT/MTS method (cell activity experiment)). Conditions: Homo sapiens, AGS, 72 h, AGS cells; MTT/MTS; 3 days of drug treatment; read-out: AGS IC50.
Type: cell-based
Method: The above cells were cultured in a complete medium containing 10% fetal bovine serum, 100 IU/mL penicillin and 100 jag/mL streptomycin, in the aseptic incubator with 95% relative humidity and 5% CO2 concentration.
2. Reagents: F12K, D-PBS, FBS, Penicillin Streptomycin, Tryple, MTT (5 mg/mL)
Appropriate amount of compound powder was weighed in a 1.5 mL centrifuge tube, then the corresponding volume of dimethyl sulfoxide (DMSO) was added to form a 20 mM reserve solution. The solution was packed separately and stored in a refrigerator at −20° C. away from light.
The cells were inoculated in a cell culture bottle, added an appropriate amount of complete medium, and cultured in a sterile incubator. When the degree of cell confluence reached more than 80%, subculture was carried out.
The adherent cells in logarithmic growth phase were digested by trypsin or the suspension cells were collected by centrifugation and counted. 90 μL cell suspension was inoculated into 96-well plate according to the cell inoculation density of 1000 cells per well, and 10 μL of 10-fold final concentration compound diluted by culture medium was added 24 hours later. Compared with the hole with the same volume of 5% DMSO as control, the final concentration of DMSO was 0.5%. After 3 days of drug treatment, the cell viability was detected by MTT. The specific methods are as follows: 10 μL MTT per well was added into the incubator for 4 hours, the supernatant was discarded and 150 μL DMSO was added to dissolve the crystal methylazan, and the absorbance of 490 nm was detected by enzyme labeling instrument, or 10 μL MITS per well was added to the incubator for 4 hours, and […] absorbance was detected directly by enzyme labeling instrument. GraphPad Prism 6 software makes dose-effect curve and calculates IC50.

| IC50 | SMILES |
| --- | --- |
| 390 nM | C#Cc1cccc2cc(O)cc(-c3ncc4c(N5C[C@H]6CC[C@@H](C5)O6)nc(OC[C@@]56CCCN5C[C@H](F)C6)nc4c3F)c12 [Example 11, 4-(4-((1R,5S)-8-oxa-3-azabicyclo[3.2.1]octan-3-yl)-8-fluoro-2-(((2R,7aS)-2-fluorotetrahydro-1H-pyrrolizin-7a(5H)-yl)methoxy)pyrido[4,3-d]pyrimidin-7-yl)-5-ethynylnaphthalen-2-ol] |
| 316 nM | C#Cc1c(F)ccc2cc(O)cc(-c3ncc4c(N5C[C@H]6CC[C@@H](C5)O6)nc(OC[C@@]56CCCN5C[C@H](F)C6)nc4c3F)c12 [Example 12, 4-(4-((1R,5S)-8-oxa-3-azabicyclo[3.2.1]octan-3-yl)-8-fluoro-2-(((2R,7aS)-2-fluorotetrahydro-1H-pyrrolizin-7a(5H)-yl)methoxy)pyrido[4,3-d]pyrimidin-7-yl)-5-ethynyl-6-fluoronaphthalen-2-ol] |
| 320 nM | CCc1c(F)ccc2cc(O)cc(-c3ncc4c(N5C[C@H]6CC[C@@H](C5)O6)nc(OC[C@@]56CCCN5C[C@H](F)C6)nc4c3F)c12 [Example 13, 4-(4-((1R,5S)-8-oxa-3-azabicyclo[3.2.1]octan-3-yl)-8-fluoro-2-(((2R,7aS)-2-fluorotetrahydro-1H-pyrrolizin-7a(5H)-yl)methoxy)pyrido[4,3-d]pyrimidin-7-yl)-5-ethyl-6-fluoronaphthalen-2-ol] |
| 330 nM | CCc1cccc2cc(O)cc(-c3ncc4c(N5C[C@H]6CC[C@@H](C5)O6)nc(OC[C@@]56CCCN5C[C@H](F)C6)nc4c3F)c12 [Example 14, 4-(4-((1R,5S)-8-oxa-3-azabicyclo[3.2.1]octan-3-yl)-8-fluoro-2-(((2R,7aS)-2-fluorotetrahydro-1H-pyrrolizin-7a(5H)-yl)methoxy)pyrido[4,3-d]pyrimidin-7-yl)-5-ethylnaphthalen-2-ol] |
| 320 nM | Oc1cc(-c2ncc3c(N4C[C@H]5CC[C@@H](C4)O5)nc(OC[C@@]45CCCN4C[C@H](F)C5)nc3c2F)c2c(F)cccc2c1 [Example 15, 4-(4-((1R,5S)-8-oxa-3-azabicyclo[3.2.1]octan-3-yl)-8-fluoro-2-(((2R,7aS)-2-fluorotetrahydro-1H-pyrrolizin-7a(5H)-yl)methoxy)pyrido[4,3-d]pyrimidin-7-yl)-5-fluoronaphthalen-2-ol] |
| 315 nM | Oc1cc(-c2ncc3c(N4C[C@H]5CC[C@@H](C4)O5)nc(OC[C@@]45CCCN4C[C@H](F)C5)nc3c2F)c2c(F)c(F)ccc2c1 [Example 16, 4-(4-((1R,5S)-8-oxa-3-azabicyclo[3.2.1]octan-3-yl)-8-fluoro-2-(((2R,7aS)-2-fluorotetrahydro-1H-pyrrolizin-7a(5H)-yl)methoxy)pyrido[4,3-d]pyrimidin-7-yl)-5,6-difluoronaphthalen-2-ol] |
| 271 nM | C#Cc1cccc2cc(O)cc(-c3ncc4c(N5C[C@H]6CC[C@@H](C5)S6)nc(OC[C@@]56CCCN5C[C@H](F)C6)nc4c3F)c12 [Example 20, 4-(4-((1R,5S)-8-thia-3-azabicyclo [3.2.1]octan-3-yl)-8-fluoro-2-(((2R, 7aS)-2-fluorotetrahydro-1H-pyrrolizin-7a(5H)-yl)methoxy)pyrido [4,3-d]pyrimidin-7-yl)-5-ethynylnaphthalen-2-ol] |
| 269 nM | C#Cc1c(F)ccc2cc(O)cc(-c3ncc4c(N5C[C@H]6CC[C@@H](C5)S6)nc(OC[C@@]56CCCN5C[C@H](F)C6)nc4c3F)c12 [Example 21, 4-(4-((1R,5S)-8-thia-3-azabicyclo[3.2.1]octan-3-yl)-8-fluoro-2-(((2R,7aS)-2-fluorotetrahydro-1H-pyrrolizin-7a(5H)-yl)methoxy)pyrido[4,3-d]pyrimidin-7-yl)-5-ethynyl-6-fluoronaphthalen-2-ol] |
| 3950 nM | C#Cc1c(F)ccc2cc(O)cc(-c3ncc4c(N5CC6CCC(C5)[S+]6[O-])nc(OC[C@@]56CCCN5C[C@H](F)C6)nc4c3F)c12 (stereo partly drawn) [Example 22, (1R,5S,8R)-3-(7-(8-ethynyl-7-fluoro-3-hydroxynaphthalen-1-yl)-8-fluoro-2-(((2R,7aS)-2-fluorotetrahydro-1H-pyrrolizin-7a(5H)-yl)methoxy)pyrido [4,3-d]pyrimidin-4-yl)-8-thia-3-azabicyclo [3.2.1]octane 8-oxide] |
| 6950 nM | C#Cc1c(F)ccc2cc(O)cc(-c3ncc4c(N5C[C@H]6CC[C@@H](C5)S6(=O)=O)nc(OC[C@@]56CCCN5C[C@H](F)C6)nc4c3F)c12 [Example 23, (1R,5S)-3-(7-(8-ethynyl-7-fluoro-3-hydroxynaphthalen-1-yl)-8-fluoro-2-(((2R, 7aS)-2-fluorotetrahydro-1H-pyrrolizin-7a(5H)-yl)methoxy)pyrido[4,3-d]pyrimidin-4-yl)-8-thia-3-azabicyclo[3.2.1] octane 8,8-dioxide] |

| SMILES | IC50 |
| --- | --- |
| Oc1cc(-c2ncc3c(N4C[C@H]5CC[C@@H](C4)N5)nc(OCC4(CN5CCCC5)CC4)nc3c2F)c2c(F)c(F)ccc2c1 [Example 5, 4-(4-((1R,5S)-3,8-diazabicyclo[3.2.1]octan-3-yl)-8-fluoro-2-((1-(pyrrolidin-1-ylmethyl)cyclopropyl)methoxy)pyrido[4,3-d]pyrimidin-7-yl)-5,6-difluoronaphthalen-2-ol] | 3.8 nM |
| Oc1cc(-c2ncc3c(N4C[C@H]5CC[C@@H](C4)N5)nc(OCC4(CN5CCCC5)CC4)nc3c2F)c2c(F)cccc2c1 [Example 6, 4-(4-((1R,5S)-3,8-diazabicyclo[3.2.1]octan-3-yl)-8-fluoro-2-((1-(pyrrolidin-1-ylmethyl)cyclopropyl)methoxy)pyrido[4,3-d]pyrimidin-7-yl)-5-fluoronaphthalen-2-ol] | 14 nM |
| Nc1cc2ccccc2c(-c2ncc3c(N4C[C@H]5CC[C@@H](C4)N5)nc(OCC4(CN5CCCC5)CC4)nc3c2F)n1 [Example 7, 1-(4-((1R,5S)-3,8-diazabicyclo[3.2.1]octan-3-yl)-8-fluoro-2-((1-(pyrrolidin-1-ylmethyl)cyclopropyl)methoxy)pyrido[4,3-d]pyrimidin-7-yl)isoquinolin-3-amine] | 2580 nM |
| Cc1cc(N)nc(-c2ncc3c(N4C[C@H]5CC[C@@H](C4)N5)nc(OCC4(CN5CCCC5)CC4)nc3c2F)c1C(F)(F)F [Example 8, 6-(4-((1R,5S)-3,8-diazabicyclo[3.2.1]octan-3-yl)-8-fluoro-2-((1-(pyrrolidin-1-ylmethyl)cyclopropyl)methoxy)pyrido[4,3-d]pyrimidin-7-yl)-4-methyl-5-(trifluoromethyl) pyridin-2-amine] | > 1000 nM |
| Cc1cc(N)nc(-c2ncc3c(N4C[C@H]5CC[C@@H](C4)N5)nc(OCC4(CN5CCCC5)CC4)nc3c2F)c1C1CC1 [Example 9, 6-(4-((1R,5S)-3,8-diazabicyclo[3.2.1]octan-3-yl)-8-fluoro-2-((1-(pyrrolidin-1-ylmethyl)cyclopropyl)methoxy)pyrido[4,3-d]pyrimidin-7-yl)-5-cyclopropyl-4-methylpyridin-2-amine] | > 1000 nM |
| Oc1cc(Cl)c(C2CC2)c(-c2ncc3c(N4C[C@H]5CC[C@@H](C4)N5)nc(OCC4(CN5CCCC5)CC4)nc3c2F)c1 [Example 10, 3-(4-((1R,5S)-3,8-diazabicyclo[3.2.1]octan-3-yl)-8-fluoro-2-((1-(pyrrolidin-1-ylmethyl)cyclopropyl)methoxy)pyrido[4,3-d]pyrimidin-7-yl)-5-chloro-4-cyclopropylphenol] | 17 nM |
